The subject of test [1] is SW620 cells. Nature of the test: Colony formation of SW620 cells with free ligand. In kind it is cell-based, human. As to conditions: SW620, low glucose medium, 3.5 mg/mL ligand, 15 days, versus control SW620 (FIG. 8C). The protocol: Cell proliferation studies were carried out in SW620 cells, FIG. 7A, cultured in medium with high and low glucose concentration. The cells were trypsinized and plated the same number of cells in order to count them at times 0, 24, 72, 96 and 168 hours, using for this the Neubauer chamber, after trypsinization thereof. In an analogous manner, cell proliferation studies were carried out in medium with the presence of free ligand, FIG. 8, which was added to the culture medium at different concentrations. Photos were taken using the microscope (Leica DMIL® microscope) and subsequently they were trypsinized, and the number of cells was counted to make the comparison between these and the starting ones in order to observe the effect of the ligand on the cells. […] However, when studies of colony formation were carried out, starting from an amount of 200 cells per well and waiting for 15 days, it was observed that cells cultured in medium with low concentration of glucose, and that express higher levels of receptor, formed more colonies than those grown in high glucose medium (FIG. 7B). For colony formation studies, 12 well plates were used, plating in different amounts of cells (200, 400,600 and 800 cells per well), in medium with high (4500 mg/L) and low (1000 mg/L) content of glucose. […]

The subject of test [2] is SW620 cells. Nature of the test: Cell proliferation of SW620 cells with free ligand in the medium (cell counting). Type of test: cell-based, human. Here is the method:
FIG. 8. RT-PCR of the receptor when the cells are kept in contact with lactisole for 9 days, comparing it with the controls (SW620 cultured in medium with low glucose concentration) (A). Cell proliferation of SW620 cells cultured in medium with low glucose concentration, and increasing concentrations of lactisole (from 0.44 mg/mL to 7 mg/mL) for 72 h (B). Colony formation of control SW620 cells or in contact with the lactisole ligand, at a concentration of 3.5 mg/mL, after 15 days of culture (C). Beta-galactosidase staining, indicative of cellular senescence, in SW620 cells treated with lactisole (3.5 mg/mL for 72 hours, arrows show cells where staining can be seen) (D). Western blot showing the expression of different proteins involved in tumor progression in SW620 cells when they are exposed to different glucose concentrations (high and low) and lactisole (3.5 mg/ml) for 9 days (E). […] Cell proliferation studies were carried out in SW620 cells, FIG. 7A, cultured in medium with high and low glucose concentration. […] Photos were taken using the microscope (Leica DMIL® microscope) and subsequently they were trypsinized, and the number of cells was counted to make the comparison between these and the starting ones in order to observe the effect of the ligand on the cells. […]

Test [3] has as its system SW620 cells. The experiment in a line: Beta-galactosidase staining for cellular senescence. Type of test: cell-based, human. As to conditions: SW620, low glucose medium, 3.5 mg/mL, 72 hours (FIG. 8D). The protocol: To determine whether after cell incubation with the ligand cell senescence is induced, 500,000 cells of the SW620 line were cultured in 6-well plates and medium with low glucose concentration. In several wells, ligand (3.5 mg/mL) was added. After 72 hours, the wells were washed and fixed (2% formaldehyde, 0.2% glutaraldehyde in PBS) for 15 minutes at room temperature. The solution was eliminated giving three washes with 1×PBS, and then the staining solution was applied, calculated for one milliliter of solution: 200 μL citric acid/phosphate buffer, pH 6.0 (dibasic sodium phosphate (Na2HPO4) 0.2 M+0.1 M citric acid), 30 μL 5 M NaCl, 50 μL potassium ferricyanide (K3[Fe(CN)6]) 100 mM, 50 μL potassium ferrocyanide (K4[Fe(CN)6]) 100 mM, 2 μL magnesium chloride (MgCl2) 1 M, 50 μL solution X-gal (20 mg/mL of 5-bromo-4-chloro-3-indolyl β D-galactopyranoside in […]) and 618 μL distilled water. It was incubated in the oven at 37° C. overnight, the wells were washed with distilled water in motion twice, to then apply PBS 1× and observe the possible senescent cells under the Vert microscope. Al, Zeiss®. Blue staining is observed, corresponding to cells in senescence.

The test system of test [4] is TAS1R3 receptor. Nature of the test: RT-PCR of TAS1R3 receptor in SW620 cells kept in contact with lactisole. In kind it is cell-based, human. As to conditions: SW620, low glucose medium, lactisole for 9 days, versus controls (FIG. 8A).
Protocol: Metastatic colon cells from the lymph node (SW620, CCL-227), colorectal adenocarcinoma epithelial cells (SW480, CCL-228), lung carcinoma epithelial cells (A549, CCL-185), and metastatic lung cells from the liver (H1755, CRL-5892), pancreatic carcinoma cells (MIA PaCa-2, CRL-1420), and glioblastoma cells (U118, HTB-15 and U87MG, HTB-14) were used. The SW620, SW480, A549, U118 and U87MG lines were maintained in DMEM HG medium (Dulbecco's Modified Eagle's Medium—High glucose, Sigma-Aldrich), and the H1755 line in RPMI 1640 medium (Gibco®, LifeTecnologies), both supplemented to the 10% with fetal bovine serum (Gibco®, LifeTecnologies) and 1% with antibiotic (penicillin and streptomycin, Sigma-Aldrich). For the quantitative analysis of the expression of TAS1R3, a polymerase chain reaction was carried out with reverse transcriptase (RT-PCR), starting from RNA extracted from all cell lines in culture. […] RNA extraction was carried out using the extraction kit (GeneJET RNA Purification Kit, ThermoScientic), and the analysis was carried out in a manner similar to that described in a previous paragraph. Once the procedure was finished, the data were analyzed.
The test system of test [5] is p-ERK, p-AKT, IGF-IR. Nature of the test: Western blot of proteins involved in tumor progression in SW620 cells. To be noted: SW620, lactisole 3.5 mg/ml or high glucose (HG), 9 days (FIG. 8E). Type of test: cell-based, human. The protocol:
FIG. 8. RT-PCR of the receptor when the cells are kept in contact with lactisole for 9 days, comparing it with the controls (SW620 cultured in medium with low glucose concentration) (A). Cell proliferation of SW620 cells cultured in medium with low glucose concentration, and increasing concentrations of lactisole (from 0.44 mg/mL to 7 mg/mL) for 72 h (B). Colony formation of control SW620 cells or in contact with the lactisole ligand, at a concentration of 3.5 mg/mL, after 15 days of culture (C). Beta-galactosidase staining, indicative of cellular senescence, in SW620 cells treated with lactisole (3.5 mg/mL for 72 hours, arrows show cells where staining can be seen) (D). […]
For the qualitative study of proteins, Western Blot was performed from proteins isolated from the SW620 cell line, and the results are shown in FIG. 6 (B). […] The total protein of each sample was quantified by the […] (conversion method of bicathionic to monocationic copper in alkaline conditions influenced by specific amino acids such as cysteine, cystine, tryptophan, tyrosine and also by the peptide chain; the amount of bicathionic copper will depend of the amount of these components and will be determined spectrophotopically) using the commercial kit DC-Assay (BIO-RAD®) and establishing a calibration line with bovine serum albumin (BSA, Sigma-Aldrich). […]
A general note: Immunoblotting shows a protein as a band on a membrane.

Test [6] can be described thus: Immunization of mice with TAS1R3 peptide, titration of bleeds. As to conditions: 4 plus 2 doses of 50 μg of peptide. In kind it is in vivo. Here is the method: The resulting protein was purified to homogeneity with a final purity of 90-95%, 2 mg conjugated to KLH, 3 mg conjugated to BSA. The design of the genomic construct was carried out based on the literature (Maitrepierre et al., 2012). Likewise, a study of storage buffer formulation was carried out to preserve the integrity of the protein (restricting the use of detergents and polysaccharides in the final formula). The batch obtained was aliquoted in labeled sterile vials and stored at −80° C. until use. After several immunizations of the mice with 4 plus 2 doses of 50 μg of peptide, the bleeds were titrated in order to evaluate the increase of the response against the peptide.

As to `COc1ccc(OC(C)C(=O)O)cc1` (stereo not shown) [lactisole, Lactisole], the Colony formation entry in test [1] is “no representative colony formed on the plate was observed”. The Cell proliferation result in test [2] (SW620, low glucose medium, lactisole 0.44 to 7 mg/mL, 72 h, effect at higher concentrations (FIG. 8B)) was “interferes with cell proliferation”. The “Cellular senescence (beta-galactosidase staining)” value in test [3] is on record as “induction of cellular senescence”. Also, the “Expression of the TAS1R3 receptor (RT-PCR)” value in test [4] is given as “increase in the expression of the receptor”. Moreover, in test [5], the “Activation of pathways related to tumor progression (western blot)” value is recorded as “activates pathways related to tumor progression, such as p-ERK, p-AKT or IGF-IR”.
For the compound “Acetyl-LSQQLRMKGDYVLGGC-amide (Ac-LSQQLRMKGDYVLGGC-NH2) [TAS1R3 N-terminal extracellular peptide immunogen, conjugated to KLH / BSA]”, the “Response against the peptide (titration of bleeds)” value in test [6] is recorded as “some response against the peptide, although with very low values”.
“CFYDEKR [peptide derived from brazzein, brazzein peptide, ligand for TAS1R3]”: the Cell proliferation entry in test [2] (SW620, DMEM supplemented with different receptor ligands, extent depends on concentration and molecule (FIG. 8F)) was “interfere with proliferation”.

Source of the values: patent publication US20210275680A1, “USE OF THE TAS1R3 PROTEIN AS A MARKER FOR THERAPEUTIC, DIAGNOSTIC, AND/OR PROGNOSTIC PURPOSES FOR TUMORS THAT EXPRESS SAID PROTEIN” (FUNDACIÓN INSITITUTO DE INVESTIGACIÓN SANITARIA DE SANTIAGO …, priority 2018, published 2021).
